US11331299B2, “Medicinal use of serrulatane diterpenes” (The University of Sydney, priority 2016, dated 2022)
Read-outs that look alike come from different tables or passages of the source.

Tested on: 280 human cancer cell lines
Test: OncoPanel cell proliferation assay (10-day)
Assay type: cell-based
Settings: Homo sapiens; for IC50: read-out: Cell Count IC50; for EC50: read-out: Cell Count EC50
[1] = SW872, SW872, Soft Tissue - Sarcoma
[2] = SW 954, SW954, Female GU - Vulva
[3] = SW982, SW982, Soft Tissue - Sarcoma
[4] = SW1353, SW1353, Soft Tissue - Osteosarcoma
[5] = TE 125.T, Soft Tissue - Sarcoma
[6] = TE 381.T, Soft Tissue - Sarcoma
[7] = U2OS, Soft Tissue - Osteosarcoma
[8] = U-118-MG, U-118 MG, CNS - Glioma
[9] = VA-ES-BJ, Soft Tissue - Sarcoma
[10] = WM 266-4, WM-266-4, Skin (Melanoma)

Compound: CC(C)=CCC[C@H](C)[C@@H]1CC[C@@H](C)c2c1cc(C)c(O)c2O [Compound 4, 7,8-dihydroxyserrulat-14-ene]
- GI50 (SW837, SW837, Colon, read-out: Cell Count GI50): 18.7 µM
- IC50 (SW837, SW837, Colon): 18.9 µM
- EC50 [1]: 4.39 µM
- GI50 (SW872, SW872, Soft Tissue - Sarcoma, read-out: Cell Count GI50): 4.38 µM
- IC50 [1]: 4.39 µM
- EC50 (SW900, SW900, Lung - SCLC): 23.3 µM
- GI50 (SW900, SW900, Lung - SCLC, read-out: Cell Count GI50): 23.1 µM
- IC50 (SW900, SW900, Lung - SCLC): 23.3 µM
- EC50 (SW948, SW948, Colon): 29.7 µM
- GI50 (SW948, SW948, Colon, read-out: Cell Count GI50): > 30 µM
- IC50 (SW948, SW948, Colon): > 30 µM
- EC50 [2]: 21.7 µM
- GI50 (SW 954, SW954, Female GU - Vulva, read-out: Cell Count GI50): 21.6 µM
- IC50 [2]: 21.7 µM
- EC50 [3]: 7.29 µM
- GI50 (SW982, SW982, Soft Tissue - Sarcoma, read-out: Cell Count GI50): 7.26 µM
- IC50 [3]: 7.3 µM
- EC50 (SW1088, SW1088, CNS - Glioma): 8.77 µM
- GI50 (SW1088, SW1088, CNS - Glioma, read-out: Cell Count GI50): 8.69 µM
- IC50 (SW1088, SW1088, CNS - Glioma): 8.77 µM
- EC50 [4]: 4.15 µM
- GI50 (SW1353, SW1353, Soft Tissue - Osteosarcoma, read-out: Cell Count GI50): 4.14 µM
- IC50 [4]: 4.15 µM
- EC50 (SW1417, SW1417, Colon): > 30 µM
- GI50 (SW1417, SW1417, Colon, read-out: Cell Count GI50): 29.3 µM
- IC50 (SW1417, SW1417, Colon): > 30 µM
- EC50 (SW1463, SW1463, Colon): 29.4 µM
- GI50 (SW1463, SW1463, Colon, read-out: Cell Count GI50): 29.5 µM
- IC50 (SW1463, SW1463, Colon): 29.6 µM
- EC50 (SW1783, SW1783, CNS - Glioma): 12.3 µM
- GI50 (SW1783, SW1783, CNS - Glioma, read-out: Cell Count GI50): 12.1 µM
- IC50 (SW1783, SW1783, CNS - Glioma): 12.3 µM
- EC50 (SW-403, SW403, Colon): > 30 µM
- GI50 (SW-403, SW403, Colon, read-out: Cell Count GI50): > 30 µM
- IC50 (SW-403, SW403, Colon): > 30 µM
- EC50 (SW-620, SW620, Colon): 11.3 µM
- GI50 (SW-620, SW620, Colon, read-out: Cell Count GI50): 11.3 µM
- IC50 (SW-620, SW620, Colon): 11.3 µM
- EC50 (SiHa, Female GU - Cervix): 11.3 µM
- GI50 (SiHa, Female GU - Cervix, read-out: Cell Count GI50): 13.2 µM
- IC50 (SiHa, Female GU - Cervix): 13.5 µM
- EC50 (T24, Bladder): 12.2 µM
- GI50 (T24, Bladder, read-out: Cell Count GI50): 12.2 µM
- IC50 (T24, Bladder): 12.2 µM
- EC50 (T47D, Breast): 3.28 µM
- GI50 (T47D, Breast, read-out: Cell Count GI50): 2.92 µM
- IC50 (T47D, Breast): 3.28 µM
- EC50 (T98G, CNS - Glioma): 24.5 µM
- GI50 (T98G, CNS - Glioma, read-out: Cell Count GI50): 24.5 µM
- IC50 (T98G, CNS - Glioma): 24.5 µM
- EC50 (TCC-SUP, TCCSUP, Bladder): 8.91 µM
- GI50 (TCC-SUP, TCCSUP, Bladder, read-out: Cell Count GI50): 8.67 µM
- IC50 (TCC-SUP, TCCSUP, Bladder): 8.91 µM
- EC50 [5]: 23.6 µM
- GI50 (TE 125.T, Soft Tissue - Sarcoma, read-out: Cell Count GI50): 17 µM
- IC50 [5]: 23.6 µM
- EC50 [6]: 6.28 µM
- GI50 (TE 381.T, Soft Tissue - Sarcoma, read-out: Cell Count GI50): 6.08 µM
- IC50 [6]: 6.28 µM
- EC50 (TF-1, Leukemia): 6.57 µM
- GI50 (TF-1, Leukemia, read-out: Cell Count GI50): 6.26 µM
- IC50 (TF-1, Leukemia): 6.57 µM
- EC50 (THP-1, Thp1, Leukemia): 12 µM
- GI50 (THP-1, Thp1, Leukemia, read-out: Cell Count GI50): 11.9 µM
- IC50 (THP-1, Thp1, Leukemia): 12 µM
- EC50 (TUR, Lymphoma): 8.98 µM
- GI50 (TUR, Lymphoma, read-out: Cell Count GI50): 8.98 µM
- IC50 (TUR, Lymphoma): 8.98 µM
- EC50 [7]: 4.21 µM
- GI50 (U2OS, Soft Tissue - Osteosarcoma, read-out: Cell Count GI50): 4.2 µM
- IC50 [7]: 4.21 µM
- EC50 (U138-MG, U-138MG, CNS - Glioma): 25 µM
- GI50 (U138-MG, U-138MG, CNS - Glioma, read-out: Cell Count GI50): 24.9 µM
- IC50 (U138-MG, U-138MG, CNS - Glioma): 25 µM
- EC50 (U266B1, Myeloma): 10.1 µM
- GI50 (U266B1, Myeloma, read-out: Cell Count GI50): 9.81 µM
- IC50 (U266B1, Myeloma): 10.1 µM
- EC50 (U-87 MG, CNS - Glioma): 13.8 µM
- GI50 (U-87 MG, CNS - Glioma, read-out: Cell Count GI50): 13.6 µM
- IC50 (U-87 MG, CNS - Glioma): 13.8 µM
- EC50 [8]: 13.9 µM
- GI50 (U-118-MG, U-118 MG, CNS - Glioma, read-out: Cell Count GI50): 13.6 µM
- IC50 [8]: 13.9 µM
- EC50 (UMUC3, UM-UC-3, Bladder): 3.83 µM
- GI50 (UMUC3, UM-UC-3, Bladder, read-out: Cell Count GI50): 3.82 µM
- IC50 (UMUC3, UM-UC-3, Bladder): 3.83 µM
- EC50 [9]: 15.2 µM
- GI50 (VA-ES-BJ, Soft Tissue - Sarcoma, read-out: Cell Count GI50): 15 µM
- IC50 [9]: 15.2 µM
- EC50 [10]: 10.9 µM
- GI50 (WM 266-4, WM-266-4, Skin (Melanoma), read-out: Cell Count GI50): 10.8 µM
- IC50 [10]: 10.9 µM
- EC50 (WiDr, Colon): 12.8 µM
- GI50 (WiDr, Colon, read-out: Cell Count GI50): 12.8 µM
- IC50 (WiDr, Colon): 12.8 µM
- EC50 (Y79, Eye): 5.65 µM
- GI50 (Y79, Eye, read-out: Cell Count GI50): 5.34 µM
- IC50 (Y79, Eye): 5.65 µM
- EC50 (YAPC, Pancreas): 18 µM
- GI50 (YAPC, Pancreas, read-out: Cell Count GI50): 18.2 µM
- IC50 (YAPC, Pancreas): 18.2 µM
- GI50 (strong: Daudi, DOHH-2, GA-10, L-428, ST486, MX1, NALM-6, T47D, CEM-C1, A-673, read-out: GI50): 1.23 to 2.92 µM
